Experimental data published in US11517612B2, “Methods of treating inflammatory skin disorders” (NEPSONE EHF, priority 2016, dated 2022).
Where no end group is shown, it is not given here.

Tested on: psoriatic lesion(s)
Assay: Pre-psoriatic rim topical administration and treatment of psoriasis
Assay type: in vivo
Method: In one embodiment, a composition for topical administration was prepared using the peptide CGRP8-37 in a topical formulation at 20 μg/g. The effective range of the peptide in the composition can be between 0.00001 μg/g to […], depending on formulation and measured penetration parameters. The described composition was applied to an area at least partially around the psoriatic lesion(s), termed the pre-psoriatic rim, which was determined using well known laser Doppler flowmetry. […] 10 μg/g of the peptide was applied twice daily for 4 weeks. The composition was purposely not applied directly to the lesion. Without being held to a single theory, a novel local neural transport mechanism appears to be responsible for the effects observed by the pre-psoriatic rim administration resulting in treatment of psoriasis. Topical steroids are usually applied directly on lesions as is the convention for most topical treatments. Topical steroid molecules are much smaller (<500 Da) then CGRP8-37 (3100 Da) and therefore can more easily penetrate thick skin, topical steroids also have a side-effect on normal skin causing skin atrophy in some cases. That is why, for steroids and some other topical remedies e.g. tar (being irritating to normal skin), applying around the lesion is not recommended. […]

CGRP8-37: CGRP derivative peptide, high affinity CGRP receptor antagonist; sequence SEQ ID NO:1 or SEQ ID NO:2; used in topical formulation (VTHRLAGLLSRSGGVVKNNFVPTNVGSKAF; ends and bridges not checked; UniProt P06881 90-119, looked up, fragment)
improvement at low dosage (applied around the lesion, doses as low as 1 μg/g of topical formulation): significant improvement
response of psoriatic lesion (plaque on right shoulder, FIGS. 8-10) (topical composition applied to pre-psoriatic rim, not directly to the lesion, 10 μg/g of the peptide twice daily for 4 weeks): clearing completely
